Test results as given in patent US20170101385A1, “NOVEL ISOXAZOLES, A PROCESS FOR THEIR PREPARATION AND USES THEREOF” (Sanko Tekstil Isletmeleri San. Ve Tic. A.S., priority 2015, published 2017).

System: Staphylococcus aureus ATCC 6538
Assay: Antibacterial test on treated fabric (AATCC 147:2011; washing standard BS EN ISO 6330 5A)
Assay type: cell-based
Parameters: key to Bacteria Growth: (—): no bacterial colonies directly under the treated sample in the contact area were observed
Settings: 37° C. ± 2° C., 18-24 hrs, no washing; for Bacteria Growth: directly under the treated fabric sample in the contact area; for Inhibition Zone (width of clear zone of inhibition): woven fabric treated with the compound, sample 25 × 50 mm
Protocol: In order to determine if the antimicrobic activity of the textile fabrics, Washing Standart: BS EN ISO 6330 5A and Antibacterial Test Standart: AATCC 147:2011 were followed. Details of the method are given in the experimental section of the description.
• Antibacterial tests were carried out using Washing Standart: BS EN ISO 6330 5A, and Antibacterial Test Standart: AATCC 147:2011.

Cc1cc(/N=C/c2cccc3ccccc23)on1 [Example 1, 3-methyl-N-(1-naphthalenylmethylen)-5-isoxazolamine]
Bacteria Growth: (—)
Inhibition Zone (width of clear zone of inhibition): 0 mm

Cc1cc(/N=C/c2cc3ccccc3c3ccccc23)on1 [Example 3, 3-methyl-N-(9-phenanthrenylmethylen)-5-isoxazolamine]
Bacteria Growth: (—)
Inhibition Zone (width of clear zone of inhibition): 0 mm

Cc1cc(/N=C/c2ccc3ccccc3c2)on1 [Example 2, 3-methyl-N-(2-naphthalenylmethylen)-5-isoxazolamine]
Bacteria Growth: (—)
Inhibition Zone (width of clear zone of inhibition): 0 mm
